Series [1] in a line: in vitro. As to conditions: human.
Series [2] deals with human cytomegalovirus (HCMV) strain AD-169. Description: Anti-HCMV assay, strain AD169. It counts as cell-based. As to conditions: in parentheses.
The subject of series [3] is human cytomegalovirus (HCMV) strain Davis. Description: Anti-HCMV assay, strain Davis. In kind it is cell-based. Particulars: in parentheses.
Series [4] concerns the target wild-type HIV-1 reverse transcriptase (Human immunodeficiency virus type 1 group M subtype B, UniProt P04585). In words: RT enzyme assay, wild-type RT. It counts as biochemical.
Series [5] concerns HIV-1 (IIIB) wild type. In words: Anti-HIV assay in MT-4 cell cultures. As to conditions: MT-4 cells.
For series [6], the target named is HIV-1 RT K103N (Human immunodeficiency virus type 1 group M subtype B, UniProt P04585, K690N). In words: biochemical.
The target in series [7] is HIV-1 RT K103N/Y181C (Human immunodeficiency virus type 1 group M subtype B, UniProt P04585, K690N/Y768C). Description: biochemical.

As for `Nc1ccn(C[C@@H](CO)OCP(=O)(O)O)c(=O)n1.O.O` [Cidofovir, reference compound], the CC50 in series [1] stood at 63 µM. The SI in series [2] is reported as 64; in series [3], 63.

Consider `Cc1ccccc1OCCn1ccc(=O)n(Cc2ccccc2)c1=O` [Compound 5, 3-Benzyl-1-[2-(2-methylphenoxy)ethyl]uracil], for which the Ki in series [4] is above 100 µM.

As for `Cc1cccc(OCCn2ccc(=O)n(Cc3ccccc3)c2=O)c1` [Compound 6, 3-Benzyl-1-[2-(3-methylphenoxy)ethyl]uracil], the Ki in series [4] is above 100 µM.

Take `Cc1ccc(OCCn2ccc(=O)n(Cc3ccccc3C)c2=O)cc1` [Compound 15, 3-(2-Methylbenzyl)-1-[2-(4-methylphenoxy)ethyl]uracil]: in series [4], the Ki was above 100 µM.

As for `Cc1ccc(OCCn2ccc(=O)n(Cc3cccc(C)c3)c2=O)cc1` [Compound 16, 3-(3-Methylbenzyl)-1-[2-(4-methylphenoxy)ethyl]uracil], in series [5], the “SI, selectivity index, ratio CC50/IC50” value was “⩾11”.

For the compound `Cc1ccc(OCCn2ccc(=O)n(Cc3cc(C)cc(C)c3)c2=O)cc1` [Compound 19, 1-[2-(4-Methylphenoxy)ethyl]-3-(3,5-dimethylbenzyl)uracil], the Ki in series [6] and in series [7] was above 26 µM in each case.

With `Cc1ccc(OCCn2ccc(=O)n(Cc3c(C)cc(C)cc3C)c2=O)cc1` [Compound 20, 1-[2-(4-Methylphenoxy)ethyl]-3-(2,4,6-trimethylbenzyl)-uracil], the inhibitory constant (Ki) in series [4] is above 100 µM.

On to `Cc1cc(C)cc(Cn2c(=O)ccn(C/C=C/c3ccccc3)c2=O)c1` [Compound 30, 1-Cinnamyl-3-(3,5-dimethylbenzyl)uracil], for which the Ki in series [7] was above 100 µM.

Turning to `O=c1ccn(C/C=C/c2ccccc2)c(=O)n1Cc1cc(F)cc(F)c1` [Compound 31, 1-Cinnamyl-3-(3,5-difluorobenzyl)uracil], the CC50 in series [1] is 51 µM. Moreover, the SI in series [2] stood at 1.38; in series [3] it was 1.13.

`O=c1ccn(C/C=C/c2ccccc2)c(=O)n1Cc1cc(Cl)cc(Cl)c1` [Compound 32, 1-Cinnamyl-3-(3,5-dichlorobenzyl)uracil] showed a CC50 in series [1] of at least 100 µM. Moreover, the values for the SI in series [2] and in series [3] were 11 and 9, respectively. In series [7], this compound gave an inhibitory constant (Ki) above 100 µM.

In turn, `O=c1ccn(C/C=C/c2ccccc2)c(=O)n1Cc1cc(Br)cc(Br)c1` [Compound 33, 1-Cinnamyl-3-(3,5-dibromobenzyl)uracil] yielded an inhibition constant Ki in series [7] above 100 µM.

Turning to `Cc1cc(Br)cc(Cn2c(=O)ccn(C/C=C/c3ccccc3)c2=O)c1` [Compound 34, 3-(3-Bromo-5-methylbenzyl)-1-cinnamyluracil], the CC50 in series [1] was at least 100 µM. Besides, the SI in series [2] was 6; in series [3], 5.

In turn, `O=c1ccn(C/C=C/c2ccccc2)c(=O)n1Cc1cccc2ccccc12` [Compound 35, 1-Cinnamyl-3-(1-naphthylmethyl)uracil] returned a CC50 in series [1] of at least 100 µM. Further, the figures for the SI in series [2] and in series [3] were 7 and 16, respectively.

`Nc1nc2c(ncn2COC(CO)CO)c(=O)[nH]1` [Ganciclovir, reference compound] had a CC50 in series [1] of 132 µM. The SI is 21 in series [2] and 23 in series [3].

The values are drawn from article PMC7125863 (Bioorganic & Medicinal Chemistry, 2013).
